Measured values as given in article PMC8288134, “Synthesis, potential antitumor activity, cell cycle analysis, and multitarget mechanisms of novel hydrazones incorporating a 4-methylsulfonylbenzene scaffold: a molecular docking study” (Journal of Enzyme Inhibition and Medicinal Chemistry, 2021).
Where two headings read alike, the source gives them in different places.

Legend:
HL-60(TB) = assay: cells; format: cell-based, human; conditions: for inhibition at 10 µM: HL-60, HL-60(TB), read-out: Growth inhibition percentage (GI%)
PRMI-8226 = assay: NCI antitumor screen (SRB); format: cell-based; conditions: Homo sapiens; for inhibition at 10 µM: one dose 10 µM, read-out: Growth inhibition percentage (GI%)
EKVX [1] = assay: NCI antitumor screen (SRB); format: cell-based; conditions: Homo sapiens; for inhibition at 10 µM: one dose 10 µM, read-out: Growth inhibition percentage (GI%)
HOP-62 = assay: NCI antitumor screen (SRB); format: cell-based; conditions: Homo sapiens
NCI-H226 = assay: NCI antitumor screen (SRB); format: cell-based; conditions: Homo sapiens; for inhibition at 10 µM: one dose 10 µM, read-out: Growth inhibition percentage (GI%)
NCI-H23 = assay: NCI antitumor screen (SRB); format: cell-based; conditions: Homo sapiens; for inhibition at 10 µM: one dose 10 µM, read-out: Growth inhibition percentage (GI%)
NCI-H322M = assay: NCI antitumor screen (SRB); format: cell-based; conditions: Homo sapiens; for inhibition at 10 µM: read-out: Growth inhibition percentage (GI%)
NCI-H522 = assay: NCI antitumor screen (SRB); format: cell-based; conditions: Homo sapiens
SF-268 = assay: NCI antitumor screen (SRB); format: cell-based; conditions: Homo sapiens; for inhibition at 10 µM: one dose 10 µM, read-out: Growth inhibition percentage (GI%)
SF-539 = assay: NCI antitumor screen (SRB); format: cell-based; conditions: Homo sapiens; for inhibition at 10 µM: one dose 10 µM, read-out: Growth inhibition percentage (GI%)
U251 = assay: NCI antitumor screen (SRB); format: cell-based; conditions: Homo sapiens; for inhibition at 10 µM: U-251, one dose 10 µM, read-out: Growth inhibition percentage (GI%)
M14 [2] = assay: NCI antitumor screen (SRB); format: cell-based; conditions: Homo sapiens; for inhibition at 10 µM: one dose 10 µM, read-out: Growth inhibition percentage (GI%)
UACC-257 = assay: NCI antitumor screen (SRB); format: cell-based, human; conditions: for inhibition at 10 µM: read-out: Growth inhibition percentage (GI%)
OVCAR-3 = assay: NCI antitumor screen (SRB); format: cell-based; conditions: Homo sapiens; for inhibition at 10 µM: one dose 10 µM, read-out: Growth inhibition percentage (GI%)
OVCAR-8 = assay: NCI antitumor screen (SRB); format: cell-based; conditions: Homo sapiens; for inhibition at 10 µM: one dose 10 µM, read-out: Growth inhibition percentage (GI%)
786-0 [3] = assay: NCI antitumor screen (SRB); format: cell-based; conditions: Homo sapiens; for inhibition at 10 µM: one dose 10 µM, read-out: Growth inhibition percentage (GI%)
ACHN [4] = assay: NCI antitumor screen (SRB); format: cell-based; conditions: Homo sapiens; for inhibition at 10 µM: one dose 10 µM, read-out: Growth inhibition percentage (GI%)
CAKI-1 = assay: NCI antitumor screen (SRB); format: cell-based; conditions: Homo sapiens; for inhibition at 10 µM: one dose 10 µM, read-out: Growth inhibition percentage (GI%)
SN12C [5] = assay: NCI antitumor screen (SRB); format: cell-based; conditions: Homo sapiens; for inhibition at 10 µM: one dose 10 µM, read-out: Growth inhibition percentage (GI%)
MDA-MB-468 [6] = assay: NCI antitumor screen (SRB); format: cell-based; conditions: Homo sapiens; for inhibition at 10 µM: one dose 10 µM, read-out: Growth inhibition percentage (GI%)
[7] = tested on: full panel of 59 cancer cell lines; assay: NCI antitumor screen, full panel; conditions: for PCE: positive cytotoxic effect (number of cell lines with GI 10 to 100% / total number of cell lines): one dose 10 µM
SR = tested on: SR; parameters: method as in https://dtp.cancer.gov/dtpstandard/dwindex/index.jsp; conditions: reference drugs, ref https://dtp.cancer.gov/dtpstandard/dwindex/index.jsp; cited from earlier work
EKVX [8] = tested on: EKVX; parameters: method as in https://dtp.cancer.gov/dtpstandard/dwindex/index.jsp; conditions: reference drugs, ref https://dtp.cancer.gov/dtpstandard/dwindex/index.jsp; cited from earlier work
HT29 = tested on: HT29; parameters: method as in https://dtp.cancer.gov/dtpstandard/dwindex/index.jsp; conditions: reference drugs, ref https://dtp.cancer.gov/dtpstandard/dwindex/index.jsp; cited from earlier work
M14 [9] = tested on: M14; parameters: method as in https://dtp.cancer.gov/dtpstandard/dwindex/index.jsp; conditions: reference drugs, ref https://dtp.cancer.gov/dtpstandard/dwindex/index.jsp; cited from earlier work
786-0 [10] = tested on: 786-0; parameters: method as in https://dtp.cancer.gov/dtpstandard/dwindex/index.jsp; conditions: reference drugs, ref https://dtp.cancer.gov/dtpstandard/dwindex/index.jsp; cited from earlier work
ACHN [11] = tested on: ACHN; parameters: method as in https://dtp.cancer.gov/dtpstandard/dwindex/index.jsp; conditions: reference drugs, ref https://dtp.cancer.gov/dtpstandard/dwindex/index.jsp; cited from earlier work
SN12C [12] = tested on: SN12C; parameters: method as in https://dtp.cancer.gov/dtpstandard/dwindex/index.jsp; conditions: reference drugs, ref https://dtp.cancer.gov/dtpstandard/dwindex/index.jsp; cited from earlier work
TK-10 = tested on: TK-10; parameters: method as in https://dtp.cancer.gov/dtpstandard/dwindex/index.jsp; conditions: reference drugs, ref https://dtp.cancer.gov/dtpstandard/dwindex/index.jsp; cited from earlier work
PC-3 = tested on: PC-3; parameters: method as in https://dtp.cancer.gov/dtpstandard/dwindex/index.jsp; conditions: reference drugs, ref https://dtp.cancer.gov/dtpstandard/dwindex/index.jsp; cited from earlier work
MCF7 = tested on: MCF7; parameters: method as in https://dtp.cancer.gov/dtpstandard/dwindex/index.jsp; conditions: reference drugs, ref https://dtp.cancer.gov/dtpstandard/dwindex/index.jsp; cited from earlier work
MDA-MB-231/ATCC = tested on: MDA-MB-231/ATCC; parameters: method as in https://dtp.cancer.gov/dtpstandard/dwindex/index.jsp; conditions: reference drugs, ref https://dtp.cancer.gov/dtpstandard/dwindex/index.jsp; cited from earlier work
BT-549 = tested on: BT-549; parameters: method as in https://dtp.cancer.gov/dtpstandard/dwindex/index.jsp; conditions: reference drugs, ref https://dtp.cancer.gov/dtpstandard/dwindex/index.jsp; cited from earlier work
MDA-MB-468 [13] = tested on: MDA-MB-468; parameters: method as in https://dtp.cancer.gov/dtpstandard/dwindex/index.jsp; conditions: reference drugs, ref https://dtp.cancer.gov/dtpstandard/dwindex/index.jsp; cited from earlier work
[14] = tested on: NSC lung cancer tumour cell lines; conditions: cited from earlier work
[15] = tested on: CNS cancer tumour cell lines; conditions: cited from earlier work
[16] = tested on: breast cancer tumour cell lines; conditions: cited from earlier work
[17] = five concentrations 0.01-100 µM
[18] = read-out: LC50 (subpanel average), reference drugs, ref https://dtp.cancer.gov/dtpstandard/dwindex/index.jsp
[19] = reference drugs, ref https://dtp.cancer.gov/dtpstandard/dwindex/index.jsp

CS(=O)(=O)c1ccc(C(=O)N/N=C/c2ccccc2O)cc1 [Compound 16]
inhibition at 10 µM (HL-60(TB); Homo sapiens, one dose 10 µM): 93.7%
inhibition at 10 µM (PRMI-8226): 51.3%
inhibition at 10 µM (EKVX [1]): 74.2%
inhibition at 10 µM (HOP-62; HOP-62, read-out: Growth inhibition percentage (GI%)): 71.8%
inhibition at 10 µM (NCI-H226): 44.8%
inhibition at 10 µM (NCI-H23): 45.2%
inhibition at 10 µM (NCI-H322M): 61.6%
inhibition at 10 µM (NCI-H522; NCI-H522, read-out: Growth inhibition percentage (GI%)): 84.9%
inhibition at 10 µM (SF-268): 61.6%
inhibition at 10 µM (SF-539): 44.7%
inhibition at 10 µM (U251): 72.2%
inhibition at 10 µM (M14 [2]): 67.5%
inhibition at 10 µM (UACC-257; Homo sapiens, UACC-257, one dose 10 µM): 77.4%
inhibition at 10 µM (OVCAR-3): 77.2%
inhibition at 10 µM (OVCAR-8): 72.1%
inhibition at 10 µM (786-0 [3]): 67%
inhibition at 10 µM (ACHN [4]): 71.7%
inhibition at 10 µM (CAKI-1): 65.1%
inhibition at 10 µM (SN12C [5]): 41.4%
inhibition at 10 µM (MDA-MB-468 [6]): 35.3%
PCE: positive cytotoxic effect (number of cell lines with GI 10 to 100% / total number of cell lines) [7]: 59/59

CCN(CC)c1ccc(/C=N/NC(=O)c2ccc(S(C)(=O)=O)cc2)c(O)c1 [Compound 20]
Growth inhibition percentage (GI%) (HL-60(TB); HL-60(TB), one dose 10 µM): >100%
inhibition at 10 µM (HL-60(TB); Homo sapiens, one dose 10 µM): 100%
GI50 (HL-60(TB); Homo sapiens, HL-60(TB), five concentrations 0.01-100 µM): 164 nM
GI50 (PRMI-8226; [17]): 297 nM
inhibition at 10 µM (PRMI-8226): 79%
GI50 (EKVX [1]; [17]): 162 nM
inhibition at 10 µM (EKVX [1]): 84.5%
GI50 (HOP-62; HOP-62, five concentrations 0.01-100 µM): 85 nM
inhibition at 10 µM (HOP-62; HOP-62, one dose 10 µM, read-out: Growth inhibition percentage (GI%)): 87.1%
GI50 (NCI-H226; [17]): 73 nM
inhibition at 10 µM (NCI-H226): 77.4%
GI50 (NCI-H23; [17]): 446 nM
inhibition at 10 µM (NCI-H23): 67.2%
GI50 (NCI-H322M; [17]): 228 nM
inhibition at 10 µM (NCI-H322M; one dose 10 µM): 75%
GI50 (NCI-H522; NCI-H522, five concentrations 0.01-100 µM): 395 nM
inhibition at 10 µM (NCI-H522; NCI-H522, one dose 10 µM, read-out: Growth inhibition percentage (GI%)): 90.1%
GI50 (SF-268; [17]): 78.9 nM
inhibition at 10 µM (SF-268): 78.2%
GI50 (SF-539; [17]): 244 nM
inhibition at 10 µM (SF-539): 96%
GI50 (U251; U-251, five concentrations 0.01-100 µM): 137 nM
inhibition at 10 µM (U251): 79.4%
GI50 (M14 [2]; [17]): 171 nM
inhibition at 10 µM (M14 [2]): 96.6%
inhibition at 10 µM (UACC-257; Homo sapiens, UACC-257, UACC-257, one dose 10 µM): 100%
GI50 (UACC-257; Homo sapiens, UACC-257, five concentrations 0.01-100 µM): 340 nM
Growth inhibition percentage (GI%) (UACC-257; UACC-257, one dose 10 µM): >100%
GI50 (OVCAR-3; [17]): 125 nM
inhibition at 10 µM (OVCAR-3): 66.6%
GI50 (OVCAR-8; [17]): 250 nM
inhibition at 10 µM (OVCAR-8): 83.2%
GI50 (786-0 [3]; [17]): 182 nM
inhibition at 10 µM (786-0 [3]): 84.6%
GI50 (ACHN [4]; [17]): 117 nM
inhibition at 10 µM (ACHN [4]): 82.9%
GI50 (CAKI-1; [17]): 104 nM
inhibition at 10 µM (CAKI-1): 79.6%
GI50 (SN12C [5]; [17]): 354 nM
inhibition at 10 µM (SN12C [5]): 68.8%
GI50 (MDA-MB-468 [6]; [17]): 203 nM
inhibition at 10 µM (MDA-MB-468 [6]): 98.8%
GI50 ([7]; Homo sapiens, read-out: GI50 (range over cell lines)): 63 to 11700 nM
GI50 ([7]; Homo sapiens, read-out: GI50 MG-MID (full panel mean-graph midpoint)): 260 nM
CC50 ([7]; Homo sapiens, read-out: LC50 MG-MID (full panel mean-graph midpoint)): > 100 µM
TGI MG-MID (full panel mean-graph midpoint) ([7]; full panel): 46.8 µM
PCE: positive cytotoxic effect (number of cell lines with GI 10 to 100% / total number of cell lines) [7]: 59/59
fold more potent than 5-Fu ([7]; ratio of GI50 MG_MID): ~3 fold
fold more potent than celecoxib ([7]; ratio of GI50 MG_MID): ~65 fold
fold more potent than erlotinib ([7]; ratio of GI50 MG_MID): ~30 fold
fold more potent than gefitinib and sorafenib ([7]; ratio of GI50 MG_MID): ~9 fold

CNC(=O)c1cc(Oc2ccc(NC(=O)Nc3ccc(Cl)c(C(F)(F)F)c3)cc2)ccn1 [Sorafenib, sorafenib]
GI50 (SR): 3.16 µM
GI50 (EKVX [8]): 2510 nM
GI50 (HT29): 1990 nM
GI50 (M14 [9]): 1990 nM
GI50 (786-0 [10]): 3.16 µM
GI50 (ACHN [11]): 2510 nM
GI50 (SN12C [12]): 2510 nM
GI50 (TK-10): 3.98 µM
GI50 (PC-3): 1990 nM
GI50 (MCF7): 2510 nM
GI50 (MDA-MB-231/ATCC): 1260 nM
GI50 (BT-549): 3.16 µM
GI50 (MDA-MB-468 [13]): 1990 nM
CC50 [14, 18]: 49.1 µM
TGI (subpanel average) [14, 19]: 7.99 µM
GI50 ([15]; read-out: GI50 (subpanel average), reference drugs, ref https://dtp.cancer.gov/dtpstandard/dwindex/index.jsp): 2330 nM
CC50 [15, 18]: 27.8 µM
TGI (subpanel average) [15, 19]: 7.64 µM
CC50 [16, 18]: 57.3 µM
TGI (subpanel average) [16, 19]: 9.35 µM
